Among the test systems are CAKI-1; COLO 205; MCF7; K562; UACC-257; DU-145; Malme-3M; UO-31; OVCAR-3; IGROV-1; MOLT-4; HL-60; NCI-H522; SF-268; NCI-H226; MDA-MB-435; MDA-MB-231; SR; RXF 393; A498.
Common to all, as to assay: inhibition of tumour cell growth, NCI panel, 48 h

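Method: 48-hour compound exposure of cells in 96-well plates, five concentrations, linear interpolation of endpoints. GI50 marks 50% less growth.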 Activity calls are given as the source filed them. No stated cut-off is given here; in the data, active = GI50 up to about 1.1 µM and inactive = higher.

For `CC(=O)NC1COC(COC(=O)CCCCCCCCCCNC(=O)c2ccc([N+](=O)[O-])c3c(=O)c4ccccc4[nH]c23)C(O)C1OC(C)C(=O)NC(C(=O)NC(CCC(N)=O)C(=O)OCc1ccccc1)C(C)C` (stereo not given), the GI50 in the assay on CAKI-1 was 15.2 µM (inactive); in the assay on COLO 205, 18.8 µM (inactive); in the assay with MCF7, 6.61 µM (inactive); with K562, 9.48 µM (inactive); in the assay with UACC-257, 15.3 µM (inactive); with DU-145, 5.79 µM (inactive). For the same molecule, the GI50 in the assay with Malme-3M is 38.6 µM (inactive); in the assay with UO-31 it was 8.41 µM (inactive); in the assay on OVCAR-3 it was 3.57 µM (inactive); in the assay with IGROV-1 it was 6.38 µM (inactive); in the assay with MOLT-4, 18.6 µM (inactive); in the assay on HL-60, 0.445 µM (active). Moreover, the GI50 with NCI-H522 is 12.3 µM (inactive); in the assay with SF-268, 7.36 µM (inactive); in the assay with NCI-H226 it was 44.9 µM (inactive); in the assay with MDA-MB-435, 36.8 µM (inactive); in the assay with MDA-MB-231, 38.8 µM (inactive); in the assay with SR it was 7.08 µM (inactive). The GI50 was 4.02 µM (inactive) in the assay on RXF 393 and 28.8 µM (inactive) in the assay with A498.
On to `CCc1nnc(-n2c(C)nc3cc(Cl)ccc3c2=O)s1`, for which the GI50 in the assay on CAKI-1 is 80.9 µM (inactive); in the assay on COLO 205, 24.4 µM (inactive); in the assay on MCF7 it was 31.9 µM (inactive); with K562, 29 µM (inactive); with UACC-257 it was 39.4 µM (inactive); with DU-145, 41.6 µM (inactive). Besides, the GI50 with Malme-3M is 16 µM (inactive); in the assay with UO-31, 31.6 µM (inactive); in the assay on OVCAR-3 it was 18.7 µM (inactive); in the assay with IGROV-1, 40.7 µM (inactive); in the assay on MOLT-4 it was 26.3 µM (inactive); with HL-60 it was 41 µM (inactive). Moreover, the GI50 was 20.5 µM (inactive) in the assay with NCI-H522; 37.8 µM (inactive) in the assay with SF-268; 43.1 µM (inactive) in the assay on NCI-H226; 35 µM (inactive) in the assay with MDA-MB-435; 83 µM (inactive) in the assay with MDA-MB-231; 34.5 µM (inactive) in the assay with SR. In addition, the GI50 in the assay on RXF 393 is 47.3 µM (inactive); in the assay with A498 it was 39.9 µM (inactive).
Regarding `COc1cc(C2c3cc4c(cc3OC(NNc3ccccc3)C2C)OCO4)cc(OC)c1O` (stereo not given), the GI50 is 3.33 µM (inactive) in the assay on CAKI-1; 2.93 µM (inactive) in the assay on COLO 205; 2.7 µM (inactive) in the assay with MCF7; 0.0893 µM (active) in the assay on K562; 1.48 µM (inactive) in the assay on UACC-257; 2.62 µM (inactive) with DU-145. Also, the GI50 in the assay on Malme-3M is 3.42 µM (inactive); in the assay with UO-31, 1.03 µM (active); with OVCAR-3, 2.36 µM (inactive); in the assay with IGROV-1, 3.2 µM (inactive); with MOLT-4 it was 0.275 µM (active); with HL-60 it was 1.26 µM (inactive). The GI50 with NCI-H522 is 0.561 µM (active); in the assay on SF-268 it was 2.58 µM (inactive); with NCI-H226 it was 3.56 µM (inactive); in the assay on MDA-MB-435, 0.204 µM (active); in the assay on MDA-MB-231, 1.12 µM (inactive); in the assay with SR it was 0.207 µM (active). Further, the GI50 in the assay with RXF 393 was 1.92 µM (inactive); in the assay on A498, 3.85 µM (inactive).
Turning to `COc1cc2cc(C(=O)Nc3cc4n(n3)-c3ccccc3C4)[nH]c2c(OC)c1OC`, the GI50 in the assay on CAKI-1 is 1.72 µM (inactive); with COLO 205 it was 3.06 µM (inactive); in the assay with MCF7, 2.58 µM (inactive); with K562 it was 3.36 µM (inactive); in the assay with UACC-257, 2.9 µM (inactive); in the assay with DU-145 it was 6.73 µM (inactive). The GI50 in the assay with Malme-3M was 1.29 µM (inactive); in the assay on UO-31, 1.97 µM (inactive); with OVCAR-3, 2.19 µM (inactive); with IGROV-1, 2.73 µM (inactive); with MOLT-4, 1.03 µM (active); in the assay with HL-60, 2.25 µM (inactive). Moreover, the GI50 in the assay on NCI-H522 was 1.08 µM (active); with SF-268, 6.19 µM (inactive); in the assay on NCI-H226, 1.22 µM (inactive); in the assay on MDA-MB-435 it was 1.44 µM (inactive); in the assay on MDA-MB-231, 8.04 µM (inactive); in the assay on SR, 2.26 µM (inactive). Also, the figures for the GI50 in the assay on RXF 393 and in the assay with A498 were 30.1 µM (inactive) and 23.4 µM (inactive), respectively.
On to `OC1CCCC1C(O)(C(F)(F)F)C(F)(F)F` (stereo not given), for which the GI50 in the assay on CAKI-1, in the assay on COLO 205, in the assay with MCF7, in the assay with K562, in the assay with UACC-257 and in the assay with DU-145 was > 100 µM (inactive) in each case. Besides, the GI50 with Malme-3M, in the assay with UO-31, with OVCAR-3, in the assay with IGROV-1, in the assay with MOLT-4 and in the assay on HL-60 was > 100 µM (inactive) each time. In addition, the GI50 in the assay with NCI-H522, in the assay with SF-268, with NCI-H226, in the assay on MDA-MB-435, in the assay on MDA-MB-231 and with SR was > 100 µM (inactive) throughout. The GI50 with RXF 393 and in the assay with A498 was > 100 µM (inactive) in each case.
For the molecule `Cc1ccc([N+](=O)[O-])cc1S(=O)(=O)Nc1ccc(C2=NOC(c3ccco3)C2)cc1` (stereo not given), the GI50 in the assay with CAKI-1 was 22.8 µM (inactive); in the assay on COLO 205 it was 20.1 µM (inactive); in the assay on MCF7, 11.6 µM (inactive); in the assay with K562, 4.7 µM (inactive); in the assay with UACC-257, 17.6 µM (inactive); with DU-145, 20.2 µM (inactive). In addition, the GI50 with Malme-3M was 16.6 µM (inactive); with UO-31, 16.9 µM (inactive); in the assay with OVCAR-3 it was 14.8 µM (inactive); in the assay with IGROV-1 it was 24 µM (inactive); with MOLT-4 it was 15.1 µM (inactive); in the assay with HL-60, 21.3 µM (inactive). Further, the GI50 in the assay with NCI-H522 was 10.7 µM (inactive); with SF-268, 26.1 µM (inactive); in the assay with NCI-H226 it was 17 µM (inactive); with MDA-MB-435, 3.03 µM (inactive); in the assay with MDA-MB-231 it was 17.1 µM (inactive); in the assay with SR it was 3.33 µM (inactive). Also, the GI50 in the assay with RXF 393 was 8.73 µM (inactive); in the assay with A498, 15.1 µM (inactive).
On to `O=C(O)CCCCCNC(=O)CCC(CN(CC(=O)OCc1ccccc1)CC(=O)OCc1ccccc1)N(CC(=O)OCc1ccccc1)CC(=O)OCc1ccccc1` (stereo not given), for which the GI50 with CAKI-1 is 18.3 µM (inactive); in the assay on COLO 205, 16.7 µM (inactive); in the assay on MCF7, 19.4 µM (inactive); in the assay with K562 it was 12.5 µM (inactive); with UACC-257 it was 18.8 µM (inactive); in the assay on DU-145 it was 19.5 µM (inactive). For the same molecule, the GI50 was 19.2 µM (inactive) with Malme-3M; 15.8 µM (inactive) in the assay on UO-31; 17.3 µM (inactive) in the assay on OVCAR-3; 17.6 µM (inactive) in the assay on IGROV-1; 15.2 µM (inactive) in the assay with MOLT-4; 15 µM (inactive) in the assay on HL-60. Besides, the GI50 in the assay on NCI-H522 was 19.2 µM (inactive); with SF-268, 18.7 µM (inactive); in the assay on NCI-H226, 22.9 µM (inactive); with MDA-MB-435 it was 19.4 µM (inactive); in the assay on MDA-MB-231, 19.5 µM (inactive); in the assay on SR, 20.9 µM (inactive). Further, the values for the GI50 in the assay with RXF 393 and with A498 were 14.7 µM (inactive) and 17.9 µM (inactive), respectively.
Turning to `CCC1C2Cc3ccc(O)cc3C1(CC)CCN2C` (stereo not given), the GI50 was > 100 µM (inactive) with CAKI-1; > 100 µM (inactive) in the assay on COLO 205; > 100 µM (inactive) in the assay with MCF7; > 100 µM (inactive) with K562; 77.3 µM (inactive) in the assay on UACC-257; > 100 µM (inactive) in the assay with DU-145. The GI50 with Malme-3M, in the assay with UO-31, in the assay on OVCAR-3, in the assay with IGROV-1, with MOLT-4 and in the assay on HL-60 was > 100 µM (inactive) in each case. The GI50 in the assay on NCI-H522, in the assay on SF-268, in the assay on NCI-H226, in the assay on MDA-MB-435, with MDA-MB-231 and in the assay on SR was > 100 µM (inactive) each time. Moreover, the GI50 with RXF 393 and with A498 was > 100 µM (inactive) each time.
Take `CCCCCCCCCCCCCCCCC1=CC(=O)C=C(OC)C1=O`: the GI50 in the assay with CAKI-1 was > 100 µM (inactive); in the assay on COLO 205, 55.6 µM (inactive); with MCF7, > 100 µM (inactive); with K562, 47.4 µM (inactive); in the assay with UACC-257, > 100 µM (inactive); with DU-145, > 100 µM (inactive). Also, the GI50 with Malme-3M, in the assay on UO-31, in the assay on OVCAR-3, in the assay with IGROV-1, in the assay on MOLT-4 and in the assay on HL-60 was > 100 µM (inactive) each time. Further, the GI50 with NCI-H522 was > 100 µM (inactive); in the assay on SF-268, > 100 µM (inactive); in the assay with NCI-H226, > 100 µM (inactive); with MDA-MB-435, > 100 µM (inactive); in the assay on MDA-MB-231, > 100 µM (inactive); with SR, 34.3 µM (inactive). Besides, the GI50 in the assay with RXF 393 is 37 µM (inactive); in the assay on A498 it was 48.5 µM (inactive).
Regarding `COC(=O)c1n[nH]c(C)c1/N=N/N(C)CCC#N`, the GI50 in the assay on CAKI-1 was 11.3 µM (inactive); in the assay on COLO 205, 13.4 µM (inactive); with MCF7, 7.14 µM (inactive); in the assay on K562, 15.3 µM (inactive); with UACC-257, 50.7 µM (inactive); in the assay on DU-145 it was 15.1 µM (inactive). In addition, the GI50 in the assay with Malme-3M is 15.2 µM (inactive); with UO-31, 0.301 µM (active); in the assay on OVCAR-3, 18.7 µM (inactive); in the assay on IGROV-1 it was 2.13 µM (inactive); with MOLT-4 it was 3.33 µM (inactive); in the assay on HL-60, 27.5 µM (inactive). Besides, the GI50 in the assay on NCI-H522 is 10.5 µM (inactive); in the assay on SF-268 it was 15.1 µM (inactive); in the assay with NCI-H226, 12.8 µM (inactive); in the assay with MDA-MB-435, 59.8 µM (inactive); with MDA-MB-231 it was 24.8 µM (inactive); in the assay on SR it was 5.79 µM (inactive). Besides, the GI50 with RXF 393 is 13.3 µM (inactive); in the assay on A498, 76 µM (inactive).

Values taken from ChEMBL document CHEMBL1201862, “PubChem BioAssay data set” (2004).
